target: T1, chimeric human H3 receptor (Homo sapiens, UniProt Q9Y5N1, E19D); assay: Chimeric human H3 receptor GTP binding assay (agonist-stimulated GTP-gamma35S binding, Example 7); type: biochemical; settings: Table II; assay of Example 7; "*" in Ki; read-out: Ki
T1 construct: made in house; host or cells: Sf9 insect cells (baculovirus infection); P2 membrane preparation
Summary of the method: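 IC50 values come from non-linear regression of dose-response curves of filter-bound GTP-gamma^35S, counted by scintillation. Membranes were from infected Sf9 cells carrying receptor plus G-protein subunits, 35 μg/tube, with 10 μM GDP present.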

T1 sequence (Q9Y5N1 with tags, fused parts or gaps E19D): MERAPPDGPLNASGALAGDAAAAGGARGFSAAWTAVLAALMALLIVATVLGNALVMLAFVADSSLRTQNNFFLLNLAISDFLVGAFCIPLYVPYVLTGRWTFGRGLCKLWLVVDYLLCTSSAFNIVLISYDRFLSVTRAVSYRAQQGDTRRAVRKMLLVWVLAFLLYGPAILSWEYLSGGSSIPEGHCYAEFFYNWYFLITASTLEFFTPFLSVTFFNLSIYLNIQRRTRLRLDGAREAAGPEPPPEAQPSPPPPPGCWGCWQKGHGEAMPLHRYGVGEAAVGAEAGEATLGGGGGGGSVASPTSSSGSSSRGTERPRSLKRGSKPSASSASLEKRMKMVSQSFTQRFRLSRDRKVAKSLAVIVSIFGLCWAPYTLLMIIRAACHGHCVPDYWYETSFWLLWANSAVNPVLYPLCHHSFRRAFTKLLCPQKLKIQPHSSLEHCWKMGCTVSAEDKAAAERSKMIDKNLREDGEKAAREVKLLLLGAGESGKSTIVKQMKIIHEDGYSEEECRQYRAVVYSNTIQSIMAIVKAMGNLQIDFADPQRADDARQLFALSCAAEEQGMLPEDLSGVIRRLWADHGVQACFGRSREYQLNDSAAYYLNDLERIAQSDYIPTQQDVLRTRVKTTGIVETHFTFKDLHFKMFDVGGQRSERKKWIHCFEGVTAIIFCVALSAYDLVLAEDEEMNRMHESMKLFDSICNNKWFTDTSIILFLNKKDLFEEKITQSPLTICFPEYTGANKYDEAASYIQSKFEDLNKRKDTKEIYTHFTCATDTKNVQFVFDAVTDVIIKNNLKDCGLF

| Ki [nM] | SMILES |
| --- | --- |
| < 1000 | COc1ccc(F)cc1-c1cnc(N2CCN(CC(=O)N3CCN(C4CCC4)CC3)CC2)cn1 [Compound 957, 2-{4-[2-(4-cyclobutylpiperazin-1-yl)-2-oxoethyl]piperazin-1-yl}-5-(5-fluoro-2-methoxyphenyl)pyrazine] |
| < 1000 | COc1ccc(C)cc1-c1cnc(N2CCN(CC(=O)N3CCN(C4CCC4)CC3)CC2)cn1 [Compound 958, 2-{4-[2-(4-cyclobutylpiperazin-1-yl)-2-oxoethyl]piperazin-1-yl}-5-(2-methoxy-5-methylphenyl)pyrazine] |
| < 1000 | O=C(CN1CCN(c2cnc(-c3ccccc3Oc3ccccc3)cn2)CC1)N1CCN(C2CCC2)CC1 [Compound 959, 2-{4-[2-(4-cyclobutylpiperazin-1-yl)-2-oxoethyl]piperazin-1-yl}-5-(2-phenoxyphenyl)pyrazine] |
| < 1000 | O=C(CN1CCN(c2cnc(-c3cc(F)ccc3F)cn2)CC1)N1CCN(C2CCC2)CC1 [Compound 960, 2-{4-[2-(4-cyclobutylpiperazin-1-yl)-2-oxoethyl]piperazin-1-yl}-5-(2,5-difluorophenyl)pyrazine] |
| < 1000 | O=C(CN1CCN(c2cnc(-c3ccc(F)cc3F)cn2)CC1)N1CCN(C2CCC2)CC1 [Compound 961, 2-{4-[2-(4-cyclobutylpiperazin-1-yl)-2-oxoethyl]piperazin-1-yl}-5-(2,4-difluorophenyl)pyrazine] |
| < 1000 | O=C(CN1CCN(c2cnc(-c3ccc(F)c(F)c3)cn2)CC1)N1CCN(C2CCC2)CC1 [Compound 962, 2-{4-[2-(4-cyclobutylpiperazin-1-yl)-2-oxoethyl]piperazin-1-yl}-5-(3,4-difluorophenyl)pyrazine] |
| < 1000 | O=C(CN1CCN(c2cnc(-c3cc(Cl)cc(Cl)c3)cn2)CC1)N1CCN(C2CCC2)CC1 [Compound 963, 2-{4-[2-(4-cyclobutylpiperazin-1-yl)-2-oxoethyl]piperazin-1-yl}-5-(3,5-dichlorophenyl)pyrazine] |
| < 1000 | O=C(CN1CCN(c2cnc(-c3ccc(Cl)c(Cl)c3)cn2)CC1)N1CCN(C2CCC2)CC1 [Compound 964, 2-{4-[2-(4-cyclobutylpiperazin-1-yl)-2-oxoethyl]piperazin-1-yl}-5-(3,4-dichlorophenyl)pyrazine] |
| < 1000 | O=C(CN1CCN(c2cnc(-c3cc(F)cc(F)c3)cn2)CC1)N1CCN(C2CCC2)CC1 [Compound 965, 2-{4-[2-(4-cyclobutylpiperazin-1-yl)-2-oxoethyl]piperazin-1-yl}-5-(3,5-difluorophenyl)pyrazine] |
| < 1000 | O=C(CN1CCN(c2cnc(-c3cccc(F)c3F)cn2)CC1)N1CCN(C2CCC2)CC1 [Compound 966, 2-{4-[2-(4-cyclobutylpiperazin-1-yl)-2-oxoethyl]piperazin-1-yl}-5-(2,3-difluorophenyl)pyrazine] |
| < 1000 | O=C(CN1CCN(c2cnc(-c3cccc(Cl)c3Cl)cn2)CC1)N1CCN(C2CCC2)CC1 [Compound 967, 2-{4-[2-(4-cyclobutylpiperazin-1-yl)-2-oxoethyl]piperazin-1-yl}-5-(2,3-dichlorophenyl)pyrazine] |
| < 1000 | O=C(CN1CCN(c2cnc(-c3ccc(Cl)cc3Cl)cn2)CC1)N1CCN(C2CCC2)CC1 [Compound 968, 2-{4-[2-(4-cyclobutylpiperazin-1-yl)-2-oxoethyl]piperazin-1-yl}-5-(2,4-dichlorophenyl)pyrazine] |
| < 1000 | O=C(CN1CCN(c2cnc(-c3ccccc3C(F)(F)F)cn2)CC1)N1CCN(C2CCC2)CC1 [Compound 969, 2-{4-[2-(4-cyclobutylpiperazin-1-yl)-2-oxoethyl]piperazin-1-yl}-5-[2-(trifluoromethyl)phenyl] pyrazine] |
| < 1000 | COc1cccc(OC)c1-c1cnc(N2CCN(CC(=O)N3CCN(C4CCC4)CC3)CC2)cn1 [Compound 970, 2-{4-[2-(4-cyclobutylpiperazin-1-yl)-2-oxoethyl]piperazin-1-yl}-5-(2,6-dimethoxyphenyl) pyrazine] |
| < 1000 | CC(C)c1ccccc1-c1cnc(N2CCN(CC(=O)N3CCN(C4CCC4)CC3)CC2)cn1 [Compound 971, 2-{4-[2-(4-cyclobutylpiperazin-1-yl)-2-oxoethyl]piperazin-1-yl}-5-(2-isopropylphenyl)pyrazine] |
| < 1000 | Cc1cccc(C)c1-c1cnc(N2CCN(CC(=O)N3CCN(C4CCC4)CC3)CC2)cn1 [Compound 972, 2-{4-[2-(4-cyclobutylpiperazin-1-yl)-2-oxoethyl]piperazin-1-yl}-5-(2,6-dimethylphenyl)pyrazine] |
| < 1000 | O=C(CN1CCN(c2cnc(-c3cc(Cl)ccc3Cl)cn2)CC1)N1CCN(C2CCC2)CC1 [Compound 973, 2-{4-[2-(4-cyclobutylpiperazin-1-yl)-2-oxoethyl]piperazin-1-yl}-5-(2,5-dichlorophenyl)pyrazine] |
| < 1000 | Cc1cc(C)c(-c2cnc(N3CCN(CC(=O)N4CCN(C5CCC5)CC4)CC3)cn2)c(C)c1 [Compound 974, 2-{4-[2-(4-cyclobutylpiperazin-1-yl)-2-oxoethyl]piperazin-1-yl}-5-mesitylpyrazine] |

| Ki [nM] | SMILES |
| --- | --- |
| < 1000 | O=C(CN1CCN(c2cnc(-c3ccc(C(F)(F)F)cc3)cn2)CC1)N1CCN(C2CCC2)CC1 [Compound 975, 2-{4-[2-(4-cyclobutylpiperazin-1-yl)-2-oxoethyl]piperazin-1-yl}-5-[4-(trifluoromethyl)phenyl] pyrazine] |
| < 1000 | O=C(CN1CCN(c2cnc(-c3cccc(C(F)(F)F)c3)cn2)CC1)N1CCN(C2CCC2)CC1 [Compound 976, 2-{4-[2-(4-cyclobutylpiperazin-1-yl)-2-oxoethyl]piperazin-1-yl}-5-[3-(trifluoromethyl)phenyl] pyrazine] |
| < 1000 | O=C(CN1CCN(c2ncc(F)cn2)CC1)N1CCN(C2CCCC2)CC1 [Compound 977, 2-{4-[2-(4-cyclopentylpiperazin-1-yl)-2-oxoethyl]piperazin-1-yl}-5-fluoropyrimidine] |
| < 1000 | O=C(CN1CCN(c2nc3ccccc3n2Cc2ccc(F)cc2)CC1)N1CCN(C2CCCC2)CC1 [Compound 978, 2-{4-[2-(4-cyclopentylpiperazin-1-yl)-2-oxoethyl]piperazin-1-yl}-1-(4-fluorobenzyl)-1H-benzimidazole] |
| < 1000 | CCC(C)N1CCN(C(=O)CN2CCN(c3ncc(F)cn3)CC2)CC1 (stereo not drawn) [Compound 979, 2-{4-[2-(4-sec-butylpiperazin-1-yl)-2-oxoethyl]piperazin-1-yl}-5-fluoropyrimidine] |
| < 1000 | O=C(CN1C=CC2(CC1)c1ccccc1C(=O)N2Cc1ccccc1)N1CCN(C2CCC2)CC1 (stereo not drawn) [Compound 980, 2-benzyl-1′-[2-(4-cyclobutylpiperazin-1-yl)-2-oxoethyl]-2′,′3-dihydro-1′H-spiro[isoindole-1,4′-pyridin]-3(2H)-one] |
| < 1000 | O=C(CN1CCC2(CC1)c1ccccc1C(=O)N2Cc1ccccc1)N1CCN(C2CCC2)CC1 [Compound 981, 2-benzyl-1′-[2-(4-cyclobutylpiperazin-1-yl)-2-oxoethyl]spiro[isoindole-1,4′-piperidin]-3(2H)-one] |
| < 1000 | O=C(CN1CCC2(CC1)CC(=O)N(Cc1ccccc1)C2=O)N1CCN(C2CCC2)CC1 [Compound 982, 2-benzyl-8-[2-(4-cyclobutylpiperazin-1-yl)-2-oxoethyl]-2,8-diazaspiro[4.5]decane-1,3-dione] |
| < 1000 | O=C(CN1CCN(c2cnc(Br)cn2)CC1)N1CCN(C2CCC2)CC1 [Compound 983, 2-bromo-5-{4-[2-(4-cyclobutylpiperazin-1-yl)-2-oxoethyl]piperazin-1-yl}pyrazine] |
| < 1000 | O=C(CN1CCC2(CC1)c1ccccc1C(=O)N2C1CCC1)N1CCN(C2CCC2)CC1 [Compound 984, 2-cyclobutyl-1′-[2-(4-cyclobutylpiperazin-1-yl)-2-oxoethyl]spiro[isoindole-1,4′-piperidin]-3(2H)-one] |
| < 1000 | O=C(CN1CCN(c2ccc(-c3ccc4c(c3)OCO4)nn2)CC1)N1CCN(C2CCC2)CC1 [Compound 986, 3-(1,3-benzodioxol-5-yl)-6-{4-[2-(4-cyclobutylpiperazin-1-yl)-2-oxoethyl]piperazin-1-yl}pyridazine] |
| < 1000 | O=C(CN1CCN(c2ccc(-c3ccc(F)c(Cl)c3)nn2)CC1)N1CCN(C2CCC2)CC1 [Compound 987, 3-(3-chloro-4-fluorophenyl)-6-{4-[2-(4-cyclobutylpiperazin-1-yl)-2-oxoethyl]piperazin-1-yl}pyridazine] |
| < 1000 | O=C(CN1CCN(c2ccc(-c3cccc(Cl)c3)nn2)CC1)N1CCN(C2CCC2)CC1 [Compound 988, 3-(3-chlorophenyl)-6-{4-[2-(4-cyclobutylpiperazin-1-yl)-2-oxoethyl]piperazin-1-yl}pyridazine] |
| < 1000 | CCCCc1ccc(-c2ccc(N3CCN(CC(=O)N4CCN(C5CCC5)CC4)CC3)nn2)cc1 [Compound 989, 3-(4-butylphenyl)-6-{4-[2-(4-cyclobutylpiperazin-1-yl)-2-oxoethyl]piperazin-1-yl}pyridazine] |
| < 1000 | O=C(CN1CCN(c2ccc(-c3ccc(Cl)c(F)c3)nn2)CC1)N1CCN(C2CCC2)CC1 [Compound 990, 3-(4-chloro-3-fluorophenyl)-6-{4-(2-(4-cyclobutylpiperazin-1-yl)-2-oxoethyl]piperazin-1-yl}pyridazine] |
| < 1000 | O=C(CN1CCN(c2ccc(-c3ccc(Cl)cc3)nn2)CC1)N1CCN(C2CCC2)CC1 [Compound 991, 3-(4-chlorophenyl)-6-{4-[2-(4-cyclobutylpiperazin-1-yl)-2-oxoethyl]piperazin-1-yl}pyridazine] |
| < 1000 | CC(C)(C)c1ccc(-c2ccc(N3CCN(CC(=O)N4CCN(C5CCC5)CC4)CC3)nn2)cc1 [Compound 992, 3-(4-tert-butylphenyl)-6-{4-[2-(4-cyclobutylpiperazin-1-yl)-2-oxoethyl]piperazin-1-yl}pyridazine] |
| < 1000 | CN(C)c1cccc(-c2cnc(N3CCN(CC(=O)N4CCN(C5CCC5)CC4)CC3)cn2)c1 [Compound 993, 3-(5-{4-[2-(4-cyclobutylpiperazin-1-yl)-2-oxoethyl]piperazin-1-yl}pyrazin-2-yl)-N,N-dimethylaniline] |
